Numbered stars: 1 amine (or outer) side, 2 acyl side, 3 side chain; on linkers, the order of the positions; unused ones are H or OH. Square brackets hold non-standard residues; d marks the D form. Side chains are listed from the residue outwards. Peptide text beside a SMILES is read from it. * marks the point of attachment. C18 diacid = O=C(O)CCCCCCCCCCCCCCCCC(=O)*; γGlu = O=C(O)[C@H](CCC(=O)[*:2])N[*:1]; Ac4c = NC1(C(=O)O)CCC1; AEEA = NCCOCCOCC(=O)O; Aib = CC(C)(N)C(=O)O
Each compound was assayed against T1, human glucagon receptor (Homo sapiens, UniProt P47871) (assay: Glucagon receptor binding, 125I-glucagon displacement SPA on isolated membranes). Settings: displacement of 125I-glucagon from membranes; read-out: IC50 GlucR.
T1 construct: expressed in transfected cells; host or cells: BHK cells (parent BHK570, CRE luciferase clone BHK/KZ10-20-48), clone pLJ6'-4-25
T1 sequence (P47871 26-477): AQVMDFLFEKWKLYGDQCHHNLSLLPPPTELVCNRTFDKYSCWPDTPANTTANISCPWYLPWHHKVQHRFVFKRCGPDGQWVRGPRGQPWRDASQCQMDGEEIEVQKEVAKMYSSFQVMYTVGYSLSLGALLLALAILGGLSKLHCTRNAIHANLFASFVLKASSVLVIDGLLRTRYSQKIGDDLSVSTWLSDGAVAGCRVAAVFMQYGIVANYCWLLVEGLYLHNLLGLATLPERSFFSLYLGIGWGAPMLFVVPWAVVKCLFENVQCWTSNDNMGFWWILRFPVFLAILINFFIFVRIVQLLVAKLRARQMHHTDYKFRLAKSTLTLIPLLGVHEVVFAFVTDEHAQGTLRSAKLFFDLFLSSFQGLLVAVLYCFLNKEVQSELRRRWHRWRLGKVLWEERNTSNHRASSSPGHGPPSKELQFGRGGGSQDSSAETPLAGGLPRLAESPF
Procedure, shortened: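 Membranes from BHK cells stably expressing human glucagon receptor incubated 2 h at 25 °C with [125I]-glucagon (25 μl of 480 pM solution) and serial compound dilutions in WGA SPA format, pH 7.4 buffer with 0.1% ovalbumin. Albumin at max 0.001% or 0.2% final. IC50 from non-linear regression.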
`CC(C)C[C@H](NC(=O)[C@H](Cc1ccc(O)cc1)NC(=O)[C@H](CCCCN)NC(=O)[C@H](CO)NC(=O)[C@H](CC(C)C)NC(=O)[C@H](CC(=O)O)NC(=O)[C@H](CO)NC(=O)[C@@H](NC(=O)[C@H](Cc1ccccc1)NC(=O)[C@@H](NC(=O)CNC(=O)[C@H](CCC(N)=O)NC(=O)C1(NC(=O)[C@@H](N)Cc2c[nH]cn2)CCC1)[C@@H](C)O)[C@@H](C)O)C(=O)N[C@@H](CCC(=O)O)C(=O)N[C@@H](CO)C(=O)N[C@@H](CCCNC(=N)N)C(=O)N[C@@H](CCCNC(=N)N)C(=O)N[C@@H](C)C(=O)N[C@@H](CCCNC(=N)N)C(=O)N[C@@H](CCC(=O)O)C(=O)N[C@@H](Cc1ccccc1)C(=O)N[C@H](C(=O)N[C@@H](CCC(N)=O)C(=O)N[C@@H](Cc1c[nH]c2ccccc12)C(=O)N[C@@H](CC(C)C)C(=O)N[C@@H](CC(C)C)C(=O)N[C@@H](CCCCNC(=O)CC[C@H](NC(=O)CC[C@H](NC(=O)COCCOCCNC(=O)COCCOCCNC(=O)CC[C@H](NC(=O)CC[C@H](NC(=O)CCCCCCCCCCCCCCCCC(=O)O)C(=O)O)C(=O)O)C(=O)O)C(=O)O)C(=O)N[C@H](C(N)=O)[C@@H](C)O)C(C)C` [Example 61, N^ε28-[(4S)-4-carboxy-4-[[(4S)-4-carboxy-4-[[2-[2-[2-[[2-[2-[2-[[(4S)-4-carboxy-4-[[(4S)-4-carboxy-4-(17-carboxyheptadecanoylamino)butanoyl]amino]butanoyl]amino]ethoxy]ethoxy]acetyl]amino]ethoxy]ethoxy]acetyl]amino]butanoyl]amino]butanoyl]-[Acb2,Leu10,Glu15,Arg20,Glu21,Leu27,Lys28]-Glucagon amide] (H-H[Ac4c]QGTFTSDLSKYLESRRAREFVQWLLK([γGlu-γGlu-AEEA-AEEA-γGlu-γGlu-C18 diacid])T-NH2; N-terminus assumed) gave an IC50 of 1.8 nM. `CC(C)C[C@H](NC(=O)[C@H](Cc1ccc(O)cc1)NC(=O)[C@H](CCCNC(=N)N)NC(=O)[C@H](CO)NC(=O)[C@H](CC(C)C)NC(=O)[C@H](CC(=O)O)NC(=O)[C@H](CO)NC(=O)[C@@H](NC(=O)[C@H](Cc1ccccc1)NC(=O)[C@@H](NC(=O)CNC(=O)[C@H](CCC(N)=O)NC(=O)C(C)(C)NC(=O)[C@@H](N)Cc1c[nH]cn1)[C@@H](C)O)[C@@H](C)O)C(=O)N[C@@H](CC(=O)O)C(=O)N[C@@H](C)C(=O)N[C@@H](CCCNC(=N)N)C(=O)N[C@@H](CCCNC(=N)N)C(=O)N[C@@H](C)C(=O)N[C@@H](CCCNC(=N)N)C(=O)N[C@@H](CC(=O)O)C(=O)N[C@@H](Cc1ccccc1)C(=O)N[C@H](C(=O)N[C@@H](CCC(N)=O)C(=O)N[C@@H](Cc1c[nH]c2ccccc12)C(=O)N[C@@H](CC(C)C)C(=O)N[C@@H](CC(C)C)C(=O)N[C@@H](CCCCNC(=O)CC[C@H](NC(=O)CC[C@H](NC(=O)CC[C@H](NC(=O)CCCCCCCCCCCCCCCCC(=O)O)C(=O)O)C(=O)O)C(=O)O)C(=O)N[C@H](C(N)=O)[C@@H](C)O)C(C)C` [Example 62, N^ε28-[(4S)-4-carboxy-4-[[(4S)-4-carboxy-4-[[(4S)-4-carboxy-4-(17-carboxyheptadecanoylamino)butanoyl]amino]butanoyl]amino]butanoyl]-[Aib2,Leu10,Arg12,Ala16,Arg20,Leu27,Lys28]-Glucagon amide] (H-H[Aib]QGTFTSDLSRYLDARRARDFVQWLLK([γGlu-γGlu-γGlu-C18 diacid])T-NH2; N-terminus assumed) showed an IC50 of 3.9 nM. Work on `CC(C)C[C@H](NC(=O)[C@H](Cc1ccc(O)cc1)NC(=O)[C@H](CCCCN)NC(=O)[C@H](CO)NC(=O)[C@H](CC(C)C)NC(=O)[C@H](CC(=O)O)NC(=O)[C@H](CO)NC(=O)[C@@H](NC(=O)[C@H](Cc1ccccc1)NC(=O)[C@@H](NC(=O)CNC(=O)[C@H](CCC(N)=O)NC(=O)C(C)(C)NC(=O)[C@@H](N)Cc1c[nH]cn1)[C@@H](C)O)[C@@H](C)O)C(=O)N[C@@H](CCC(=O)O)C(=O)N[C@@H](CO)C(=O)N[C@@H](CCCNC(=N)N)C(=O)N[C@@H](CCCNC(=N)N)C(=O)N[C@@H](C)C(=O)N[C@@H](CCCNC(=N)N)C(=O)N[C@@H](CCC(=O)O)C(=O)N[C@@H](Cc1ccccc1)C(=O)N[C@H](C(=O)N[C@@H](CCC(N)=O)C(=O)N[C@@H](Cc1c[nH]c2ccccc12)C(=O)N[C@@H](CC(C)C)C(=O)N[C@@H](CC(C)C)C(=O)N[C@@H](CCCCNC(=O)CC[C@H](NC(=O)CC[C@H](NC(=O)[C@H](CO)NC(=O)[C@H](CCC(=O)O)NC(=O)[C@H](CO)NC(=O)CC[C@H](NC(=O)CC[C@H](NC(=O)CCCCCCCCCCCCCCCCC(=O)O)C(=O)O)C(=O)O)C(=O)O)C(=O)O)C(=O)N[C@H](C(N)=O)[C@@H](C)O)C(C)C` [Example 67, N^ε28-[(4S)-4-carboxy-4-[[(4S)-4-carboxy-4-[[(2S)-2-[[(2S)-4-carboxy-2-[[(2S)-2-[[(4S)-4-carboxy-4-[[(4S)-4-carboxy-4-(17-carboxyheptadecanoylamino)butanoyl]amino]butanoyl]amino]-3-hydroxypropanoyl]amino]butanoyl]amino]-3-hydroxypropanoyl]amino]butanoyl]amino]butanoyl]-[Aib2,Leu10,Glu15,Arg20,Glu21,Leu27,Lys28]-Glucagon amide] (H-H[Aib]QGTFTSDLSKYLESRRAREFVQWLLK([γGlu-γGlu-Ser-Glu-Ser-γGlu-γGlu-C18 diacid])T-NH2; N-terminus assumed) yielded an IC50 of 1.5 nM. `CC(C)C[C@H](NC(=O)[C@H](Cc1ccc(O)cc1)NC(=O)[C@H](CCCCN)NC(=O)[C@H](CO)NC(=O)[C@H](CC(C)C)NC(=O)[C@H](CC(=O)O)NC(=O)[C@H](CO)NC(=O)[C@@H](NC(=O)[C@H](Cc1ccccc1)NC(=O)[C@@H](NC(=O)CNC(=O)[C@H](CCC(N)=O)NC(=O)C1(NC(=O)[C@@H](N)Cc2c[nH]cn2)CCC1)[C@@H](C)O)[C@@H](C)O)C(=O)N[C@@H](CCC(=O)O)C(=O)N[C@@H](CO)C(=O)N[C@@H](CCCCN)C(=O)N[C@@H](CCCNC(=N)N)C(=O)N[C@@H](C)C(=O)N[C@@H](CCCNC(=N)N)C(=O)N[C@@H](CCC(=O)O)C(=O)N[C@@H](Cc1ccccc1)C(=O)N[C@H](C(=O)N[C@@H](CCC(N)=O)C(=O)N[C@@H](Cc1c[nH]c2ccccc12)C(=O)N[C@@H](CC(C)C)C(=O)N[C@@H](CC(C)C)C(=O)N[C@@H](CCCCNC(=O)CC[C@H](NC(=O)CC[C@H](NC(=O)[C@H](CO)NC(=O)[C@H](CCC(=O)O)NC(=O)[C@H](CO)NC(=O)CC[C@H](NC(=O)CC[C@H](NC(=O)CCCCCCCCCCCCCCCCC(=O)O)C(=O)O)C(=O)O)C(=O)O)C(=O)O)C(=O)N[C@H](C(N)=O)[C@@H](C)O)C(C)C` [Example 68, N^ε28-[(4S)-4-carboxy-4-[[(4S)-4-carboxy-4-[[(2S)-2-[[(2S)-4-carboxy-2-[[(2S)-2-[[(4S)-4-carboxy-4-[[(4S)-4-carboxy-4-(17-carboxyheptadecanoylamino)butanoyl]amino]butanoyl]amino]-3-hydroxypropanoyl]amino]butanoyl]amino]-3-hydroxypropanoyl]amino]butanoyl]amino]butanoyl]-[Acb2,Leu10,Glu15,Lys17,Arg20,Glu21,Leu27,Lys28]-Glucagon amide] (H-H[Ac4c]QGTFTSDLSKYLESKRAREFVQWLLK([γGlu-γGlu-Ser-Glu-Ser-γGlu-γGlu-C18 diacid])T-NH2; N-terminus assumed) gave an IC50 of 0.6 nM.

Source: US9474790B2, “Stable, protracted GLP-1/glucagon receptor co-agonists for medical use” (Novo Nordisk A/S, priority 2013, dated 2016)
